Consider 25 molecules from US9512142B2, “Tricyclic triazolic compounds” (LABORATORIOS DEL DR. ESTEVE S.A., priority 2013, dated 2016).

Structures are written as SMILES. ≈ marks a conversion by molar mass, not a printed value.

The first series is described as follows: Kinetic solubility. It is filed as physicochemical. As to conditions: aqueous buffer, kinetic from dmso stock; buffered aqueous solution at pH=7.4, 10 μL of 10 mM DMSO solution in 1 mL, stirred 4 hours, supernatant by liquid chromatography; read-out: Kin. Solub. On the procedure:
To a buffered aqueous solution at pH=7.4 (1 mL), a 10 mM DMSO solution of the test compound (10 μL) was added and the mixture stirred for 4 hours. After centrifugation, the compound concentration in the supernatant was determined by liquid chromatography by fitting in a calibration curve of the compound.
Take `Cl.Fc1ccccc1-c1nnn2c1CO[C@@H]1CN(Cc3ccccn3)C[C@H]12` (racemic) [Example 3, (5aRS,8aRS)-3-(2-fluorophenyl)-7-(pyridin-2-ylmethyl)-4,5a,6,7,8,8a-hexahydropyrrolo[3,4-b][1,2,3]triazolo[1,5-d][1,4]oxazine hydrochloride]: the solubility at 4 h is more than 10 µM.
The same measure, in the same setting: under `Cl.Fc1ccccc1-c1nnn2c1CO[C@@H]1CN(Cc3cccnc3)C[C@H]12` [Example 1, (5aR,8aR)-3-(2-fluorophenyl)-7-(pyridin-3-ylmethyl)-4,5a,6,7,8,8a-hexahydropyrrolo[3,4-b][1,2,3]triazolo[1,5-d][1,4]oxazine hydrochloride] stands more than 20 µM.
As to `Cl.Fc1ccccc1-c1nnn2c1CO[C@@H]1CN(C3CCOCC3)C[C@H]12` [Example 7, (5aR,8aR)-3-(2-fluorophenyl)-7-(tetrahydro-2H-pyran-4-yl)-4,5a,6,7,8,8a-hexahydropyrrolo[3,4-b][1,2,3]triazolo[1,5-d][1,4]oxazine hydrochloride], the solubility at 4 h was more than 10 µM.
The same measure, in the same setting: next, `Cl.Fc1ccc(CN2C[C@@H]3OCc4c(-c5ccccn5)nnn4[C@H]3C2)cc1` [Example 25, (5aS,8aS)-7-(4-fluorobenzyl)-3-(pyridin-2-yl)-4,5a,6,7,8,8a-hexahydropyrrolo[3,4-b][1,2,3]triazolo[1,5-d][1,4]oxazine hydrochloride]: more than 10 µM; `Cl.Clc1ccc(-c2nnn3c2CO[C@@H]2CN(CC4CCOCC4)C[C@H]23)c(Cl)c1` [Example 44, (5aR,8aR)-3-(2,4-dichlorophenyl)-7-((tetrahydro-2H-pyran-4-yl)methyl)-4,5a,6,7,8,8a-hexahydropyrrolo[3,4-b][1,2,3]triazolo[1,5-d][1,4]oxazine hydrochloride]: more than 10 µM; `Cl.Fc1ccc(CN2C[C@@H]3[C@@H](C2)OCc2c(C4CCOCC4)nnn23)cc1` [Example 64, (5aR,8aR)-7-(4-fluorobenzyl)-3-(tetrahydro-2H-pyran-4-yl)-4,5a,6,7,8,8a-hexahydropyrrolo[3,4-b][1,2,3]triazolo[1,5-d][1,4]oxazine hydrochloride]: more than 10 µM.

The series is the same for the next values; noted with them: buffered aqueous solution at pH=7.4, 10 μL of 10 mM DMSO solution in 1 mL, stirred 4 hours, supernatant by liquid chromatography; read-out: Kin. Solub.
On to `Fc1ccc(CN2C[C@@H]3[C@@H](C2)OCc2c(-c4cccc(F)c4)nnn23)cc1` [drawing 121, reference compound], for which the solubility at 4 h worked out at 3.9 µM (≈ 1.44 µg/mL).

The series is the same for the next values; noted with them: buffered aqueous solution, pH 7.4, aqueous buffer, kinetic from dmso stock, buffered aqueous solution at pH=7.4, 10 μL of 10 mM DMSO solution in 1 mL, stirred 4 hours, supernatant by liquid chromatography; read-out: Kin. Solub.
For the molecule `Cl.Fc1ccc(-c2nnn3c2CO[C@@H]2CN(C4CCOCC4)C[C@H]23)cc1` [Example 5, (5aR,8aR)-3-(4-fluorophenyl)-7-(tetrahydro-2H-pyran-4-yl)-4,5a,6,7,8,8a-hexahydropyrrolo[3,4-b][1,2,3]triazolo[1,5-d][1,4]oxazine hydrochloride], the solubility at 4 h was more than 10 µM.
Still for that read-out and setting: under `Cl.Fc1ccccc1-c1nnn2c1CO[C@H]1CN(C3CCOCC3)C[C@@H]12` [Example 6, (5aS,8aS)-3-(2-fluorophenyl)-7-(tetrahydro-2H-pyran-4-yl)-4,5a,6,7,8,8a-hexahydropyrrolo[3,4-b][1,2,3]triazolo[1,5-d][1,4]oxazine hydrochloride] stands more than 10 µM.
Still for that read-out and setting: under `CCOc1ccc(CN2C[C@@H]3OCc4c(-c5ccccc5F)nnn4[C@H]3C2)cn1.Cl` [Example 20, (5aS,8aS)-7-((6-ethoxypyridin-3-yl)methyl)-3-(2-fluorophenyl)-4,5a,6,7,8,8a-hexahydropyrrolo[3,4-b][1,2,3]triazolo[1,5-d][1,4]oxazine hydrochloride] stands more than 10 µM; under `Cl.Fc1ccc(CN2C[C@@H]3[C@@H](C2)OCc2c(-c4ccccn4)nnn23)cc1` [Example 24, (5aR,8aR)-7-(4-fluorobenzyl)-3-(pyridin-2-yl)-4,5a,6,7,8,8a-hexahydropyrrolo[3,4-b][1,2,3]triazolo[1,5-d][1,4]oxazine hydrochloride], more than 10 µM.
Same read-out and setting: under `Cl.Fc1ccc(-c2nnn3c2CO[C@@H]2CN(C4CCOCC4)C[C@H]23)c(F)c1` [Example 28, (5aR,8aR)-3-(2,4-difluorophenyl)-7-(tetrahydro-2H-pyran-4-yl)-4,5a,6,7,8,8a-hexahydropyrrolo[3,4-b][1,2,3]triazolo[1,5-d][1,4]oxazine hydrochloride] stands more than 10 µM; under `Cl.Fc1ccc(-c2nnn3c2CO[C@@H]2CN(CCC4CCOCC4)C[C@H]23)c(F)c1` [Example 40, (5aR,8aR)-3-(2,4-difluorophenyl)-7-(2-(tetrahydro-2H-pyran-4-yl)ethyl)-4,5a,6,7,8,8a-hexahydropyrrolo[3,4-b][1,2,3]triazolo[1,5-d][1,4]oxazine hydrochloride], more than 10 µM; under `Cl.Fc1ccc(-c2nnn3c2CO[C@H]2CN(CCC4CCOCC4)C[C@@H]23)c(F)c1` [Example 41, (5aS,8aS)-3-(2,4-difluorophenyl)-7-(2-(tetrahydro-2H-pyran-4-yl)ethyl)-4,5a,6,7,8,8a-hexahydropyrrolo[3,4-b][1,2,3]triazolo[1,5-d][1,4]oxazine hydrochloride], more than 10 µM.
As for `Cl.Clc1ccc(-c2nnn3c2CO[C@H]2CN(CC4CCOCC4)C[C@@H]23)c(Cl)c1` [Example 45, (5aS,8aS)-3-(2,4-dichlorophenyl)-7-((tetrahydro-2H-pyran-4-yl)methyl)-4,5a,6,7,8,8a-hexahydropyrrolo[3,4-b][1,2,3]triazolo[1,5-d][1,4]oxazine hydrochloride], the solubility at 4 h is more than 10 µM.
For the molecule `Cl.Fc1ccc(CN2C[C@@H]3OCc4c(C5CCOCC5)nnn4[C@H]3C2)cc1` [Example 65, (5aS,8aS)-7-(4-fluorobenzyl)-3-(tetrahydro-2H-pyran-4-yl)-4,5a,6,7,8,8a-hexahydropyrrolo[3,4-b][1,2,3]triazolo[1,5-d][1,4]oxazine hydrochloride], the solubility at 4 h is more than 10 µM.
Still for that read-out and setting: next, `Fc1ccc(CN2C[C@@H]3[C@@H](C2)OCc2c(-c4cccc(F)c4)nnn23)cc1` [drawing 113, reference compound]: 3.4 µM (≈ 1.25 µg/mL); `Fc1ccc(-c2nnn3c2CO[C@@H]2CN(Cc4ccccc4)C[C@H]23)cc1` [reference compound]: 1.82 µM (≈ 0.638 µg/mL); `Fc1ccc(CN2C[C@@H]3[C@@H](C2)OCc2c(-c4ccc(F)cc4F)nnn23)cc1` [reference compound]: 2.13 µM (≈ 0.823 µg/mL).
Consider `Clc1ccc(-c2nnn3c2COC2CN(Cc4ccccc4)C[C@H]23)cc1` (stereo partly shown) [reference compound], for which the solubility at 4 h was 0.93 µM (≈ 0.341 µg/mL).
On the same count and under the same terms, under `Clc1ccc(-c2nnn3c2CO[C@@H]2CN(Cc4ccccc4)C[C@H]23)c(Cl)c1` [reference compound] stands 7.8 µM (≈ 3.13 µg/mL); under `FC(F)(F)c1ccc(-c2nnn3c2COC2CN(Cc4ccccc4)C[C@H]23)cc1` (stereo partly shown) [reference compound], less than 0.4 µM; under `COc1ccc(-c2nnn3c2CO[C@H]2CN(Cc4ccccc4)C[C@@H]23)cc1` [reference compound], 2.1 µM (≈ 0.761 µg/mL).
The same measure, in the same setting: under `Fc1ccc(CN2C[C@@H]3OCc4c(-c5ccccc5F)nnn4[C@H]3C2)cc1` [reference compound] stands 3.08 µM (≈ 1.13 µg/mL); under `Clc1cc(Cl)nc(N2CC3OCc4c(-c5ccccc5)nnn4[C@@H]3C2)n1` (stereo partly shown) [reference compound], less than 1 µM.
